The values below come from ChEMBL document CHEMBL1121707, “Synthesis of 2'-deoxy-L-fucopyranosylcarminomycinone and -epsilon-pyrromycinone as well as 2'-deoxy-D-erythro-pentopyranosyldaunomycinone, -carminomycinone, and -epsilon-pyrromycinone” (1981).

The subject of test [1] is Bacillus subtilis. The test can be described thus: Tested for antibacterial effect against Bacillus subtilis-8 at dose 6.25 ug/mL. The test is classed as functional.
Test [2] concerns L1210. The test can be described thus: Average weight change after administration at 1.6 mg/kg intraperitoneally in mice on day 1 in experiment 2. The test is classed as functional, Mus musculus. The conditions noted are these: route intraperitoneal.
Test [3] has as its system L1210. The test can be described thus: Average weight change after administration at 0.8 mg/kg intraperitoneally in mice on day 1 in experiment 1. The test is classed as functional, Mus musculus. As to conditions: route intraperitoneal.
Test [4] relates to L1210. The experiment in a line: Average weight change after administration at 6.4 mg/kg intraperitoneally in mice on day 1 in experiment 2. The test is classed as functional, Mus musculus. The conditions noted are these: route intraperitoneal.
Test [5] has as its system L1210. The experiment in a line: Average weight change after administration at 6.4 mg/kg intraperitoneally in mice on day 1 in experiment 1. The test is classed as functional, Mus musculus. As to conditions: route intraperitoneal.
The test system of test [6] is L1210. The experiment in a line: Average weight change after administration from 1-9 days at 12.8 mg/kg intraperitoneally in BDF1 mice. The test is classed as functional, Mus musculus. As to conditions: route intraperitoneal.
The subject of test [7] is L1210. The test can be described thus: Average weight change after administration at 12.8 mg/kg intraperitoneally in mice on day 1 in experiment 1. The test is classed as functional, Mus musculus. The conditions noted are these: route intraperitoneal.
For test [8], the system named is L1210. The experiment in a line: Average weight change after administration from 1-9 days at 0.8 mg/kg intraperitoneally in BDF1 mice. The test is classed as functional, Mus musculus. The conditions noted are these: route intraperitoneal.
The test system of test [9] is L1210. The test can be described thus: Average weight change after administration at 3.2 mg/kg intraperitoneally in mice on day 1 in experiment 1. The test is classed as functional, Mus musculus. As to conditions: route intraperitoneal.
Test [10] concerns Bacillus subtilis. The test can be described thus: Tested for antibacterial effect against Bacillus subtilis-8 at dose 3.1 ug/mL. The test is classed as functional.
For test [11], the system named is L1210. The test can be described thus: Average weight change after administration at 25.6 mg/kg intraperitoneally in mice on day 1 in experiment 2. The test is classed as functional, Mus musculus. The conditions noted are these: route intraperitoneal.
The test system of test [12] is Bacillus subtilis. The experiment in a line: Tested for antibacterial effect against Bacillus subtilis-8 at dose 50 ug/mL. The test is classed as functional.
Test [13] relates to Bacillus subtilis. The experiment in a line: Tested for antibacterial effect against Bacillus subtilis-8 at dose 12.5 ug/mL. The test is classed as functional.
Test [14] concerns L1210. The experiment in a line: Average weight change after administration from 1-9 days at 3.2 mg/kg intraperitoneally in BDF1 mice. The test is classed as functional, Mus musculus. As to conditions: route intraperitoneal.
In test [15] the test system is L1210. The test can be described thus: Average weight change after administration at 0.4 mg/kg intraperitoneally in mice on day 1 in experiment 1. The test is classed as functional, Mus musculus. The conditions noted are these: route intraperitoneal.
For test [16], the system named is L1210. The experiment in a line: Average weight change after administration at 12.8 mg/kg intraperitoneally in mice on day 1 in experiment 2. The test is classed as functional, Mus musculus. As to conditions: route intraperitoneal.
Test [17] has as its system L1210. The test can be described thus: Average weight change after administration at 51.2 mg/kg intraperitoneally in mice on day 1 in experiment 2. The conditions noted are these: route intraperitoneal. The test is classed as functional, Mus musculus.
Test [18] relates to L1210. The test can be described thus: Average weight change after administration from 1-9 days at 1.6 mg/kg intraperitoneally in BDF1 mice. The conditions noted are these: route intraperitoneal. The test is classed as functional, Mus musculus.
The test system of test [19] is L1210. The experiment in a line: Average weight change after administration at 1.6 mg/kg intraperitoneally in mice on day 1 in experiment 1. The test is classed as functional, Mus musculus. As to conditions: route intraperitoneal.
For test [20], the system named is Bacillus subtilis. The test can be described thus: Tested for antibacterial effect against Bacillus subtilis-8 at dose 25 ug/mL. The test is classed as functional.
Test [21] concerns L1210. The experiment in a line: Average weight change after administration from 1-9 days at 0.4 mg/kg intraperitoneally in BDF1 mice. The test is classed as functional, Mus musculus. The conditions noted are these: route intraperitoneal.
Test [22] relates to L1210. The test can be described thus: Average weight change after administration from 1-9 days at 6.4 mg/kg intraperitoneally in BDF1 mice. The test is classed as functional, Mus musculus. As to conditions: route intraperitoneal.
Test [23] has as its system L1210. The experiment in a line: Average weight change after administration at 3.2 mg/kg intraperitoneally in mice on day 1 in experiment 2. The test is classed as functional, Mus musculus. As to conditions: route intraperitoneal.
The test system of test [24] is L1210. The experiment in a line: Average weight change after administration at 0.8 mg/kg intraperitoneally in mice on day 1. The test is classed as functional, Mus musculus. The conditions noted are these: route intraperitoneal.
In test [25] the test system is L1210. The test can be described thus: Median survival time of treated to that of control after administration at 0.8 mg/kg intraperitoneally in BDF1 mice on day 1. The conditions noted are these: route intraperitoneal. The test is classed as functional, Mus musculus.
In test [26] the test system is L1210. The experiment in a line: Tested for survivors on day 5 after administration at 1.6 mg/kg intraperitoneally in mice on day 1. The test is classed as functional, Mus musculus. The conditions noted are these: route intraperitoneal.
Test [27] deals with L1210. The experiment in a line: Tested for survivors on day 5 after administration at 0.4 mg/kg intraperitoneally in mice on day 1. The test is classed as functional, Mus musculus. As to conditions: route intraperitoneal.
Test [28] has as its system L1210. The test can be described thus: Average weight change after administration at 12.8 mg/kg intraperitoneally in mice on day 1. The test is classed as functional, Mus musculus. As to conditions: route intraperitoneal.
Test [29] concerns L1210. The test can be described thus: Average weight change after administration at 0.4 mg/kg intraperitoneally in mice on day 1. The test is classed as functional, Mus musculus. As to conditions: route intraperitoneal.
The subject of test [30] is L1210. The experiment in a line: Average weight change after administration at 3.2 mg/kg intraperitoneally in mice on day 1. The test is classed as functional, Mus musculus. The conditions noted are these: route intraperitoneal.
The subject of test [31] is L1210. The test can be described thus: Tested for survivors on day 5 after administration at 3.2 mg/kg intraperitoneally in mice on day 1. The test is classed as functional, Mus musculus. As to conditions: route intraperitoneal.
Test [32] deals with L1210. The test can be described thus: Tested for survivors on day 5 after administration at 12.8 mg/kg intraperitoneally in mice on day 1. The test is classed as functional, Mus musculus. The conditions noted are these: route intraperitoneal.
The test system of test [33] is L1210. The test can be described thus: Tested for survivors on day 5 after administration at 0.8 mg/kg intraperitoneally in mice on day 1. The conditions noted are these: route intraperitoneal. The test is classed as functional, Mus musculus.
Test [34] has as its system L1210. The test can be described thus: Median survival time of treated to that of control after administration at 12.8 mg/kg intraperitoneally in BDF1 mice on day 1. The test is classed as functional, Mus musculus. As to conditions: route intraperitoneal.
The test system of test [35] is L1210. The experiment in a line: Tested for survivors on day 5 after administration at 6.4 mg/kg intraperitoneally in mice on day 1. The test is classed as functional, Mus musculus. As to conditions: route intraperitoneal.
Test [36] concerns L1210. The test can be described thus: Median survival time of treated to that of control after administration at 0.4 mg/kg intraperitoneally in BDF1 mice on day 1. The test is classed as functional, Mus musculus. As to conditions: route intraperitoneal.
The subject of test [37] is L1210. The experiment in a line: Median survival time of treated to that of control after administration at 1.6 mg/kg intraperitoneally in BDF1 mice on day 1. As to conditions: route intraperitoneal. The test is classed as functional, Mus musculus.
In test [38] the test system is L1210. The test can be described thus: Median survival time of treated to that of control after administration at 3.2 mg/kg intraperitoneally in BDF1 mice on day 1. As to conditions: route intraperitoneal. The test is classed as functional, Mus musculus.
Test [39] concerns L1210. The experiment in a line: Average weight change after administration at 1.6 mg/kg intraperitoneally in mice on day 1. The conditions noted are these: route intraperitoneal. The test is classed as functional, Mus musculus.
Test [40] deals with L1210. The test can be described thus: Median survival time of treated to that of control after administration at 6.4 mg/kg intraperitoneally in BDF1 mice on day 1. The test is classed as functional, Mus musculus. The conditions noted are these: route intraperitoneal.

Take `CC(=O)[C@]1(O)Cc2c(O)c3c(c(O)c2[C@@H](O[C@H]2C[C@H](O)[C@H](O)[C@H](C)O2)C1)C(=O)c1c(O)cccc1C3=O`: the Inhibition zone stood at 19.5 mm with Bacillus subtilis [1]; 17.2 mm in the test with Bacillus subtilis [10]; 21.5 mm in the test on Bacillus subtilis [12]; 21.3 mm in the test on Bacillus subtilis [13]; 21.5 mm in the test on Bacillus subtilis [20]. Also, the Average weight change in the test with L1210 [2] is -0.6; with L1210 [3], 1.2; in the test on L1210 [4], 0.7; in the test with L1210 [5] it was -1.1; with L1210 [6], -1.6; with L1210 [7] it was -0.4. The Average weight change is 2.3 in the test with L1210 [8]; -0.9 with L1210 [9]; -1.2 in the test on L1210 [11]; -0.3 in the test with L1210 [14]; -0.8 in the test with L1210 [15]; 0.3 in the test on L1210 [16]. For the same compound, the Average weight change in the test with L1210 [17] is recorded as -1.9; in the test on L1210 [18] it was 0.6; in the test with L1210 [19], -0.8; in the test on L1210 [21] it was 0.6; in the test with L1210 [22] it was 2.4; in the test on L1210 [23], 0.2.

Regarding `C/C(=N\NC(=O)c1ccccc1)[C@]1(O)Cc2c(O)c3c(c(O)c2[C@@H](O[C@H]2C[C@H](O)[C@H](O)[C@H](C)O2)C1)C(=O)c1c(O)cccc1C3=O`, the Inhibition zone was 10.3 mm in the test with Bacillus subtilis [1], 15 mm with Bacillus subtilis [12], 12.8 mm in the test on Bacillus subtilis [13] and 13.8 mm in the test on Bacillus subtilis [20]. Besides, the Average weight change in the test with L1210 [24] was 1.5; in the test with L1210 [28] it was -0.3; in the test on L1210 [29] it was 2.3; in the test with L1210 [30], 1.9; in the test on L1210 [39] it was 2. For the same compound, the T/C with L1210 [25] is on record as 93%; in the test on L1210 [34], 114%; in the test with L1210 [36], 100%; in the test on L1210 [37], 100%; in the test on L1210 [38], 93%; in the test on L1210 [40] it was 107%. Also, the Survivors with L1210 [26], in the test on L1210 [27], with L1210 [31], in the test with L1210 [32], in the test with L1210 [33] and in the test with L1210 [35] was 6 in each case.
